Data from patent US7585883B2, “Substituted pyridines and their uses” (Rigel Pharmaceuticals, Inc., priority 2004, dated 2009).

What was measured:
[1] = tested on: cultured human mast cells (CHMC); assay: CHMC low cell density ionomycin activation: tryptase assay (ionomycin-induced degranulation); format: cell-based; conditions: ionomycin 2 μM final, tryptase release, read-out: Iono (second symbol of IgE/Iono): IC50 of ionomycin-induced degranulation
Protocol: (§1) To duplicate 96-well U-bottom plates (Costar 3799) add 65 ul of compound dilutions or control samples that have been prepared in MT [137 mM NaCl, 2.7 mM KCl, 1.8 mM CaCl2, 1.0 mM MgCl2, 5.6 mM Glucose, 20 mM Hepes (pH 7.4), 0.1% Bovine Serum Albumin, (Sigma A4503)] containing 2% MeOH and 1% DMSO. Pellet CHMC cells (980 rpm, 10 min) and resuspend in pre-warmed MT. Add 65 ul of cells to each 96-well plate. Depending on the degranulation activity for each particular CHMC donor, load 1000-1500 cells/well. Mix four times followed by a 1 hr incubation at 37° C. During the 1 hr incubation, prepare 6× anti-IgE solution [rabbit anti-human IgE (1 mg/ml, Bethyl Laboratories A80-109A) diluted 1:167 in MT buffer]. Stimulate cells by adding 25 ul of 6× anti-IgE solution to the appropriate plates. Add 25 ul MT to un-stimulated control wells. Mix twice following addition of the anti-IgE. Incubate at 37° C. for 30 minutes. During the 30 minute incubation, dilute the 20 mM tryptase substrate stock solution [(Z-Ala-Lys-Arg-AMC 2TFA; Enzyme Systems Products, #AMC-246)] 1:2000 in tryptase assay buffer [0.1 M Hepes (pH 7.5), 10% w/v Glycerol, 10 uM Heparin (Sigma H-4898) 0.01% NaN3]. Spin plates at 1000 rpm for 10 min to pellet cells. Transfer 25 ul of supernatant to a 96-well black bottom plate and add 100 ul of freshly diluted tryptase substrate solution to each well. Incubate plates at room temperature for 30 min. Read the optical density of the plates at 355 nm/460 nm on a spectrophotometric plate reader.
To confirm that many of the pyridine compounds of the invention exert their inhibitory activity by blocking or inhibiting the early IgE receptor signal transduction cascade, several of the compounds were tested in cellular assays for ionomycin-induced degranulation, as described below.
Assays for ionomycin-induced mast cell degranulation were carried out as described for the CHMC Low Density IgE Activation assays, supra, with the exception that during the 1 hour incubation, 6× ionomycin solution [5 mM ionomycin (Sigma I-0634) in MeOH (stock) diluted 1:416.7 in MT buffer (2 μM final)] was prepared and cells were stimulated by adding 25 μl of the 6× ionomycin solution to the appropriate plates.

[2] = tested on: cultured human mast cells (CHMC); assay: CHMC low cell density IgE activation: tryptase assay (IgE-induced degranulation); format: cell-based; conditions: anti-IgE stimulation, tryptase release, read-out: IgE (first symbol of IgE/Iono): IC50 of IgE-induced degranulation
Protocol: Inhibition of degranulation was measured at both low and high cell density by quantifying the release of the granule specific factors tryptase, histamine and hexosaminidase. Inhibition of release and/or synthesis of lipid mediators was assessed by measuring the release of leukotriene LTC4 and inhibition of release and/or synthesis of cytokines was monitored by quantifying TNF-α, IL-6 and IL-13. Tryptase and hexosaminidase were quantified using fluorogenic substrates as described in their respective examples. Histamine, TNFα, IL-6, IL-13 and LTC4 were quantified using the following commercial ELISA kits: histamine (Immunotech #2015, Beckman Coulter), TNFα (Biosource #KHC3011), IL-6 (Biosource #KMC0061), IL-13 (Biosource #KHC0132) and LTC4 (Cayman Chemical #520211). The protocols of the various assays are provided below.
7.2.7 CHMC Low Cell Density IgE Activation: Tryptase and LTC4 Assays
as §1

| IC50 [1] | IC50 [2] | SMILES |
| --- | --- | --- |
| > 10 µM | > 10 µM | CCNC(=O)Nc1ccc(S(=O)(=O)CCOC(=O)c2cccc(Cl)c2)nc1 [Compound 56, 2-[(5-{Ethylureido}-2-pyridinyl)sulfonyl]ethyl-3-chlorobenzoate] |
| > 10 µM | > 10 µM | O=C(Nc1ccccc1)Nc1ccc(S(=O)(=O)CCOC(=O)c2cccc(Cl)c2)nc1 [Compound 55, 2-[(5-{Phenylureido}-2-pyridinyl)sulfonyl]ethyl-3-chlorobenzoate] |
| < 10 µM | < 10 µM | O=C(OCC[S+]([O-])c1ccc([N+](=O)[O-])cn1)c1cccc(Cl)c1 (centres unmarked) [Compound 50, 2-[(5-nitro-2-pyridinyl)sulfinyl]ethyl-3-chlorobenzoate] |
| < 10 µM | < 10 µM | O=C(Nc1ccc(OC(F)(F)F)cc1)Nc1ccc(S(=O)(=O)CCOC(=O)c2cccc(Cl)c2)nc1 [Compound 57, 2-[(5-{4-Trifluoromethoxyphenylureido}-2-pyridinyl)sulfonyl]ethyl-3-chlorobenzoate] |
| < 10 µM | < 10 µM | O=C(OCCS(=O)(=O)c1ccc([N+](=O)[O-])cn1)c1cccc(OC(F)(F)F)c1 [Compound 19, 2-[(5-Nitro-2-pyridinyl)sulfonyl]ethyl 3-trifluoromethoxybenzoate] |
| < 10 µM | < 10 µM | CC(=O)NCCS(=O)(=O)c1ccc([N+](=O)[O-])cn1 [Compound 40] |
| < 10 µM | < 10 µM | CCC(=O)OCCS(=O)(=O)c1ccc([N+](=O)[O-])cn1 [Compound 18, 2-[(5-Nitro-2-pyridinyl)sulfonyl]ethyl propionate] |
| > 10 µM | > 10 µM | O=C(OCCS(=O)(=O)c1ccc(N2C(=O)CCC2=O)cn1)c1cccc(Cl)c1 [Compound 67, [(5-{2,5-Dioxotetrahydro-1H-pyrrol-1-yl}-2-pyridinyl)sulfonyl]ethyl 3-chlorobenzoate] |
| < 10 µM | < 10 µM | O=C(OCCS(=O)(=O)c1ccc(C(F)(F)F)cn1)c1cccc(Cl)c1 [Compound 21, 2-[(5-Trifluoromethyl-2-pyridinyl)-2-sulfonyl]ethyl 3-chlorobenzoate] |
| < 10 µM | < 10 µM | O=C(NCCS(=O)(=O)c1ccc([N+](=O)[O-])cn1)c1cccc(Cl)c1 [Compound 42, 3-Chloro-N-[2-({5-nitro-2-pyridinyl}sulfonyl)ethyl]benzamide] |
| < 10 µM | < 10 µM | O=C(OCCS(=O)(=O)c1ccc(N2C(=O)c3ccccc3C2=O)cn1)c1cccc(Cl)c1 [Compound 66, [(5-{1,3-Dihydro-1,3-dioxo-2H-isoindol-2-yl}-2-pyridinyl)sulfonyl]ethyl 3-chlorobenzoate] |

The next lines start with the compound.

| SMILES | IC50 [1] | IC50 [2] |
| --- | --- | --- |
| CC(=O)OCCS(=O)(=O)c1ccc([N+](=O)[O-])cn1 [Compound 17, 2-[(5-Nitro-2-pyridinyl)sulfonyl]ethyl acetate] | < 10 µM | < 10 µM |
| O=C(OCCS(=O)(=O)c1ccc([N+](=O)[O-])cn1)c1ccccc1 [Compound 13, 2[(5-Nitro-2-pyridinyl)sulfonyl]ethyl benzoate] | < 10 µM | < 10 µM |
| O=C(OCCS(=O)(=O)c1ccc([N+](=O)[O-])cn1)c1cccc(Cl)c1 [Compound 6, 2-[(5-Nitro-2-pyridinyl)sulfonyl]ethyl 3-chlorobenzoate] | < 10 µM | < 10 µM |
| CC(C)(C)OC(=O)NCCS(=O)(=O)c1ccc([N+](=O)[O-])cn1 [Compound 41, 2-[(2-{N-tert-Butoxycarbonylamino}ethyl)sulfonyl]-5-nitropyridine] | < 10 µM | < 10 µM |
| O=C(OCCS(=O)(=O)c1ccc([N+](=O)[O-])cn1)c1cccc(F)c1 [Compound 15, 2-[(5-Nitro-2-pyridinyl)sulfonyl]ethyl 3-fluorobenzoate] | < 10 µM | < 10 µM |
| O=C(OCCS(=O)(=O)c1ccc([N+](=O)[O-])cn1)c1ccc(Cl)cc1 [Compound 9, 2-[(5-Nitro-2-pyridinyl)sulfonyl]ethyl 4-chlorobenzoate] | < 10 µM | < 10 µM |
| O=C(OCCS(=O)(=O)c1ccc([N+](=O)[O-])cn1)c1cccc(C(F)(F)F)c1 [Compound 11, 2-[(5-Nitro-2-pyridinyl)sulfonyl]ethyl 3-trifluoromethylbenzoate] | < 10 µM | < 10 µM |
| O=C(OCCS(=O)(=O)c1ccc([N+](=O)[O-])cn1)c1ccc(F)cc1 [Compound 16, 2-[(5-Nitro-2-pyridinyl)sulfonyl]ethyl 4-fluorobenzoate] | < 10 µM | < 10 µM |
| O=C(OCCS(=O)(=O)c1ccc([N+](=O)[O-])cn1)c1ccccc1F [Compound 14, 2-[(5-Nitro-2-pyridinyl)sulfonyl]ethyl 2-fluorobenzoate] | < 10 µM | < 10 µM |
| O=C(OCCSc1ccc([N+](=O)[O-])cn1)c1cccc(Cl)c1 [Compound 5, 2-[(5-Nitro-2-pyridinyl)thio]ethyl-3-chlorobenzoate] | > 10 µM | > 10 µM |
| O=C(OCCS(=O)(=O)c1ccc([N+](=O)[O-])cn1)c1ccccc1C(F)(F)F [Compound 12, 2-[(5-Nitro-2-pyridinyl)sulfonyl]ethyl-2-trifluoromethylbenzoate] | < 10 µM | < 10 µM |
